The source of these data is ChEMBL document CHEMBL3751798, “Targeting cancer cells with oleanolic and ursolic acid derived hydroxamates” (Bioorg Med Chem Lett, 2016).

pEC50: −log10 of the molar value.

As a reminder, the pEC50 is the negative decadic logarithm of the EC50, by convention in mol/L. Lower therefore signals a high EC50.

Assay [1] in a line: Cytotoxicity against human 518A2 cells after 96 hrs by SRB assay. Format: functional, cell-based. To be noted: 518A2, 96 h.
Another assay has as its system A2780. Kind of assay: Cytotoxicity against human A2780 cells after 96 hrs by SRB assay. Format: functional, cell-based. To be noted: A2780, 96 h. On the technique in general: Sulforhodamine B stains cellular protein and so reports cell mass.
Another assay deals with A549. Kind of assay: Cytotoxicity against human A549 cells after 96 hrs by SRB assay. Format: functional, cell-based. Conditions: A549, 96 h.
The test system of the next assay is FaDu. Kind of assay: Cytotoxicity against human FADU cells after 96 hrs by SRB assay. Format: functional, cell-based.
The test system of another assay is HT-29. Kind of assay: Cytotoxicity against human HT-29 cells after 96 hrs by SRB assay. Format: functional, cell-based. To be noted: HT-29, 96 h.
The test system of the next assay is MCF7. Kind of assay: Cytotoxicity against human MCF7 cells after 96 hrs by SRB assay. Conditions: MCF7, 96 h. Format: functional, cell-based.
A short description of assay [2]: Cytotoxicity against mouse NIH/3T3 cells after 96 hrs by SRB assay. Format: cell-based. To be noted: NIH3T3, 96 h.

Consider `CONC(=O)[C@]12CC[C@@H](C)[C@H](C)[C@H]1C1=CC[C@@H]3[C@@]4(C)CC[C@H](O)C(C)(C)[C@@H]4CC[C@@]3(C)[C@]1(C)CC2`, for which the pEC50 is 4.84 in assay [1]; 4.92 with A2780; 5.08 in the assay on A549; 4.95 with FaDu; 4.81 in the assay on HT-29; 5.00 with MCF7. This molecule also gave a pEC50 in assay [2] of 4.79.
With `CON(C)C(=O)[C@]12CCC(C)(C)C[C@H]1C1=CC[C@@H]3[C@@]4(C)CCC(=O)C(C)(C)[C@@H]4CC[C@@]3(C)[C@]1(C)CC2`, the pEC50 in assay [1] is 4.68; in the assay on A2780, 5.06; in the assay with A549, 5.25; in the assay with FaDu, 4.61; in the assay on HT-29 it was 4.81; in the assay on MCF7, 4.79. In assay [2], this molecule showed a pEC50 of 4.86.
`CC(=O)O[C@H]1CC[C@]2(C)[C@H]3CC=C4[C@@H]5CC(C)(C)CC[C@]5(C(=O)NO)CC[C@@]4(C)[C@]3(C)CC[C@H]2C1(C)C`: the pEC50 in assay [1] was 5.38; in the assay on A2780, 5.59; with A549, 5.51; in the assay on FaDu, 4.97; in the assay on HT-29, 5.31; in the assay with MCF7, 5.02. This molecule had a pEC50 in assay [2] of 5.59.
Consider `CN(O)C(=O)[C@]12CCC(C)(C)C[C@H]1C1=CC[C@@H]3[C@@]4(C)CCC(=O)C(C)(C)[C@@H]4CC[C@@]3(C)[C@]1(C)CC2`, for which the pEC50 is 4.89 in assay [1]; 5.32 in the assay with A2780; 5.09 with A549; 4.85 in the assay with FaDu; 4.92 in the assay with HT-29; 4.79 in the assay on MCF7. This molecule had a pEC50 in assay [2] of 5.04.
`C=C(C)[C@@H]1CC[C@]2(C(=O)O)CC[C@]3(C)[C@H](CC[C@@H]4[C@@]5(C)CC[C@H](O)C(C)(C)[C@@H]5CC[C@]43C)[C@@H]12` [BETULINIC ACID]: the pEC50 is 5.03 in assay [1], 4.82 in the assay on FaDu and 4.84 with HT-29.
For the molecule `CON(C)C(=O)[C@]12CCC(C)(C)C[C@H]1C1=CC[C@@H]3[C@@]4(C)CC[C@H](O)C(C)(C)[C@@H]4CC[C@@]3(C)[C@]1(C)CC2`, the pEC50 in assay [1] is 5.48; with A2780, 5.47; with A549, 4.93; in the assay on FaDu it was 4.53; with HT-29, 5.25; in the assay with MCF7, 4.79. Besides, in assay [2], the pEC50 was 4.69.
Consider `CON(C)C(=O)[C@]12CC[C@@H](C)[C@H](C)[C@H]1C1=CC[C@@H]3[C@@]4(C)CCC(=O)C(C)(C)[C@@H]4CC[C@@]3(C)[C@]1(C)CC2`, for which the negative-log EC50 (pEC50) in assay [1] is 4.81; in the assay with A2780 it was 5.35; in the assay with A549, 5.06; in the assay on FaDu, 5.08; in the assay on HT-29, 4.73; in the assay with MCF7, 4.97. In addition, in assay [2], the pEC50 was 4.73.
Regarding `CC1(C)CC[C@]2(C(=O)O)CC[C@]3(C)C(=CC[C@@H]4[C@@]5(C)CC[C@H](O)C(C)(C)[C@@H]5CC[C@]43C)[C@@H]2C1` [OLEANOLIC_ACID], the pEC50 in assay [1] was 4.19; in the assay on A2780, 4.85; with A549 it was 4.14; with FaDu it was 4.12; in the assay with HT-29 it was 4.41; with MCF7 it was 4.10. The same molecule had a negative-log EC50 (pEC50) in assay [2] of 4.12.
For the molecule `CC1(C)CC[C@]2(C(=O)NO)CC[C@]3(C)C(=CC[C@@H]4[C@@]5(C)CC[C@H](O)C(C)(C)[C@@H]5CC[C@]43C)[C@@H]2C1`, the pEC50 is 5.26 in assay [1]; 5.47 in the assay with A2780; 5.33 in the assay with A549; 5.09 in the assay on FaDu; 5.33 with HT-29; 5.09 with MCF7. In addition, in assay [2], the pEC50 was 5.37.
With `C[C@H]1[C@H](C)CC[C@]2(C(=O)O)CC[C@]3(C)C(=CC[C@@H]4[C@@]5(C)CC[C@H](O)C(C)(C)[C@@H]5CC[C@]43C)[C@H]12` [URSOLIC ACID], the pEC50 with A2780 was 4.93; with FaDu, 4.85; in assay [2], 4.73.
For `CC(=O)O[C@H]1CC[C@]2(C)[C@H]3CC=C4[C@@H]5[C@@H](C)[C@H](C)CC[C@]5(C(=O)N(C)O)CC[C@@]4(C)[C@]3(C)CC[C@H]2C1(C)C`, the negative-log EC50 (pEC50) in assay [1] is 5.08; with A2780 it was 5.19; with A549 it was 5.24; in the assay on FaDu, 4.95; in the assay on HT-29 it was 5.06; in the assay on MCF7, 5.10. The molecule also had a pEC50 in assay [2] of 5.18.
Consider `CON(C)C(=O)[C@]12CCC(C)(C)C[C@H]1C1=CC[C@@H]3[C@@]4(C)CC[C@H](OC(C)=O)C(C)(C)[C@@H]4CC[C@@]3(C)[C@]1(C)CC2`, for which the pEC50 in assay [1] is 5.08; with A2780, 5.17; in the assay on A549, 4.75; in the assay on FaDu it was 5.03; in the assay with HT-29, 4.88; with MCF7, 5.12. This molecule also showed a pEC50 in assay [2] of 4.88.
As for `CON(C)C(=O)[C@]12CC[C@@H](C)[C@H](C)[C@H]1C1=CC[C@@H]3[C@@]4(C)CC[C@H](O)C(C)(C)[C@@H]4CC[C@@]3(C)[C@]1(C)CC2`, the pEC50 in assay [1] was 4.64; in the assay on A2780, 4.66; in the assay on A549, 4.94; with FaDu it was 4.57; with HT-29, 4.74; in the assay with MCF7 it was 4.73. In assay [2], this molecule gave a pEC50 of 4.63.
For `CONC(=O)[C@]12CCC(C)(C)C[C@H]1C1=CC[C@@H]3[C@@]4(C)CC[C@H](OC(C)=O)C(C)(C)[C@@H]4CC[C@@]3(C)[C@]1(C)CC2`, the pEC50 in assay [1] was 4.85; in the assay on A2780, 4.97; with A549 it was 4.73; with FaDu it was 4.91; in the assay with HT-29, 4.76; in the assay with MCF7, 5.04. Moreover, the pEC50 in assay [2] is 4.88.
Consider `CN(O)C(=O)[C@]12CCC(C)(C)C[C@H]1C1=CC[C@@H]3[C@@]4(C)CC[C@H](O)C(C)(C)[C@@H]4CC[C@@]3(C)[C@]1(C)CC2`, for which the pEC50 in assay [1] is 4.94; in the assay on A2780 it was 5.41; in the assay with A549, 5.01; in the assay with FaDu, 5.24; in the assay with HT-29 it was 5.06; in the assay on MCF7 it was 5.08. In assay [2], this molecule showed a pEC50 of 4.95.
As for `C[C@H]1[C@H](C)CC[C@]2(C(=O)N(C)O)CC[C@]3(C)C(=CC[C@@H]4[C@@]5(C)CC[C@H](O)C(C)(C)[C@@H]5CC[C@]43C)[C@H]12`, the pEC50 in assay [1] was 4.90; in the assay on A2780 it was 5.35; in the assay on A549 it was 5.01; in the assay on FaDu it was 4.82; with HT-29 it was 4.91; in the assay on MCF7, 4.81. The molecule also gave a pEC50 in assay [2] of 5.00.
As to `C[C@H]1[C@H](C)CC[C@]2(C(=O)NO)CC[C@]3(C)C(=CC[C@@H]4[C@@]5(C)CC[C@H](O)C(C)(C)[C@@H]5CC[C@]43C)[C@H]12`, the pEC50 in assay [1] is 5.03; with A2780, 5.34; in the assay on A549, 5.17; with FaDu it was 4.74; in the assay with HT-29 it was 5.12; with MCF7 it was 4.88. In addition, the negative logarithm of the EC50 (pEC50) in assay [2] was 5.26.
As for `C[C@H]1[C@H](C)CC[C@]2(C(=O)N(C)O)CC[C@]3(C)C(=CC[C@@H]4[C@@]5(C)CCC(=O)C(C)(C)[C@@H]5CC[C@]43C)[C@H]12`, the pEC50 is 4.91 in assay [1]; 5.40 in the assay with A2780; 5.03 in the assay with A549; 4.75 in the assay on FaDu; 4.89 with HT-29; 4.75 with MCF7. Further, the pEC50 in assay [2] was 4.98.
As to `CONC(=O)[C@]12CCC(C)(C)C[C@H]1C1=CC[C@@H]3[C@@]4(C)CCC(=O)C(C)(C)[C@@H]4CC[C@@]3(C)[C@]1(C)CC2`, the negative-log EC50 (pEC50) in assay [1] was 4.75; in the assay with A2780, 5.21; with A549, 5.32; in the assay with FaDu it was 4.64; in the assay on HT-29, 4.73; in the assay on MCF7, 4.70. The negative-log EC50 (pEC50) in assay [2] was 4.91.
As to `CC(=O)O[C@H]1CC[C@]2(C)[C@H]3CC=C4[C@@H]5[C@@H](C)[C@H](C)CC[C@]5(C(=O)NO)CC[C@@]4(C)[C@]3(C)CC[C@H]2C1(C)C`, the negative logarithm of the EC50 (pEC50) in assay [1] was 5.44; in the assay with A2780, 5.57; in the assay with A549, 5.41; in the assay with FaDu, 5.19; in the assay on HT-29, 5.46; in the assay with MCF7, 5.48. This molecule showed a negative-log EC50 (pEC50) in assay [2] of 5.60.
In the case of `CON(C)C(=O)[C@]12CC[C@@H](C)[C@H](C)[C@H]1C1=CC[C@@H]3[C@@]4(C)CC[C@H](OC(C)=O)C(C)(C)[C@@H]4CC[C@@]3(C)[C@]1(C)CC2`, the pEC50 was 4.90 in assay [1]; 5.01 with A2780; 5.02 in the assay on A549; 4.82 in the assay on FaDu; 4.75 in the assay with HT-29; 4.81 in the assay on MCF7. The molecule also had a negative-log EC50 (pEC50) in assay [2] of 4.64.
For `CC(=O)O[C@H]1CC[C@]2(C)[C@H]3CC=C4[C@@H]5CC(C)(C)CC[C@]5(C(=O)N(C)O)CC[C@@]4(C)[C@]3(C)CC[C@H]2C1(C)C`, the pEC50 was 5.03 in assay [1]; 5.12 in the assay on A2780; 4.97 with A549; 4.92 in the assay with FaDu; 4.97 in the assay with HT-29; 5.21 with MCF7. For the same molecule, the pEC50 in assay [2] is 4.91.
As to `CONC(=O)[C@]12CCC(C)(C)C[C@H]1C1=CC[C@@H]3[C@@]4(C)CC[C@H](O)C(C)(C)[C@@H]4CC[C@@]3(C)[C@]1(C)CC2`, the pEC50 in assay [1] was 4.89; with A2780, 4.91; in the assay with A549, 4.68; in the assay with FaDu it was 4.84; with HT-29, 4.73; in the assay with MCF7, 4.77. Further, the pEC50 in assay [2] was 4.74.
